The values below come from the supplement of paper PMC6723410.

The assay deals with GUMC-403. The experiment in a line: viability at highest tested concentration (max response) relative to DMSO (% of DMSO control); higher = less cytotoxic. As to conditions: library / dose series: MIPE library, 11-point 1:3 dilution, 48 h. The method, boiled down:
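Conditionally reprogrammed GUMC-403 papilloma cells from a patient were plated at 700/well in 5 μL F + Y medium in 1536-well plates and left overnight at 37 °C. A pin tool then added 23 nL of library compounds as an 11-point 1:3 series, for 48 h. CellTiter-Glo luminescence was read on a ViewLux and scaled with vehicle wells set to 100% and empty wells to 0%. Each value gives viability at the highest tested concentration relative to vehicle control.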

For `CN(C)CC[C@H](CSc1ccccc1)Nc1ccc([S+](=O)([O-])NC(=O)c2ccc(N3CCN(Cc4ccccc4-c4ccc(Cl)cc4)CC3)cc2)cc1[N+](=O)[O-]`, the viability (top concentration 46.1 µM) was 114. `C[C@@H]1[C@H](O)[C@@H](C)/C=C/C=C/C=C/C=C/C=C/C=C/C=C/[C@H](O[C@@H]2O[C@H](C)[C@@H](O)[C@H](N)[C@@H]2O)C[C@@H]2O[C@](O)(C[C@@H](O)C[C@@H](O)[C@H](O)CC[C@@H](O)C[C@@H](O)CC(=O)O[C@H]1C)C[C@H](O)[C@H]2C(=O)O` came in with a viability (top concentration 46.1 µM) of 123. On to `CC1(C)O[C@H]2CC(=O)OC[C@]23[C@H]2CC[C@@]4(C)[C@H](c5ccoc5)OC(=O)[C@H]5O[C@]54[C@]2(C)C(=O)C[C@@H]13`, for which the viability (top concentration 46.1 µM) was 139. The same measure, in the same setting: the value for `N#C/N=C(\NCCCCCCOc1ccc(Cl)cc1)Nc1ccncc1` was 115. The molecule `O=C(Nc1ccc(F)c(C(F)(F)F)c1)Nc1nnc(-c2ccncc2)s1` registered a viability (top concentration 46.1 µM) of 94. Still for that read-out and setting: the figure for `CC[C@]1(O)C[C@H]2CN(CCC3=C([NH]C4=C3C=CC=C4)[C@@](C2)(C(=O)OC)C5=CC6=C(C=C5OC)N(C=O)[C@H]7[C@](O)([C@H](OC(C)=O)[C@]8(CC)\C=C/C[N@@]9CC[C@]67[C@H]89)C(=O)OC)C1` is 105; for `CCNC(=O)Nc1ccc2ncc(Nc3ccc(C)cc3)nc2n1` it is 108; for `CC1(C)CC\C2=C(/O1)C3=C(C=CC=C3)C(=O)C2=O` it is 123. On the same count and under the same terms, the figure for `C\C1=N\N=C(\C2=CC=C(N)C=C2)C3=CC4=C(OCO4)C=C3C1` is 132. For the molecule `Cc1cc(-c2ccc(CC(=O)Nc3ccc(-c4cccnc4)cc3)cc2)ccn1`, under “top concentration 46.1 µM”, the viability stood at 118. The same measure, in the same setting: the figure for `CC(=O)O[C@@]12CO[C@@H]1C[C@H](O)[C@]3(C)[C@@H]2[C@H](OC(=O)C4=CC=CC=C4)[C@]5(O)C[C@H](OC(=O)C(O)[C@@H](NC(=O)OC(C)(C)C)C6=CC=CC=C6)C(=C(/[C@@H](O)C3=O)C5(C)C)/C` (some centres undefined) is 103; for `N=C(N)Nc1ccc(C(=O)Oc2ccc3cc(C(=N)N)ccc3c2)cc1` it is 86.1. On the same count and under the same terms, the figure for `CC(C)(Cc1ccc2ccccc2c1)NC[C@@H](O)COc1cccc(Cl)c1C#N` is 106. `CN1CCC(CC1)COC2=CN=C(N=C2)C3=CC(=CC=C3)CN4/N=C(\C=C/C4=O)C5=CC(=CC=C5)C#N` came in with a viability (top concentration 46.1 µM) of 96.2. On the same count and under the same terms, the figure for `CCCCCCCc1ccc(CCc2cccc(O)c2C(=O)O)cc1` is 108; for `CC1(C)O[C@@H]2C[C@H]3[C@@H]4C[C@H](F)C5=CC(=O)C=C[C@]5(C)[C@@]4(F)[C@@H](O)C[C@]3(C)[C@]2(C(=O)CO)O1` it is 109. The same measure, in the same setting: the value for `CCNc1cc(NC2CCC(O)CC2)nc(Nc2ccc3c(ccn3Cc3ccccc3)c2)n1` (centres undefined) was 99.8; that for `Cc1cc(O)c2c3c4c(cc(O)c13)C(C)(C)C(=O)c1c(O)cc(O)c(c1-4)C2=O` was 104; that for `CC(C(=O)O)c1ccc(-c2ccccc2)c(F)c1` (centres undefined) was 110.

`O=C(c1ccccc1)c1ccc2n1CCC2C(=O)O` (centres undefined) had a viability (top concentration 46.1 µM) of 75.8. Same read-out and setting: the figure for `CC1=C(C)C2=C(S1)[N]3C(=NN=C3[C@H](CC(=O)OC(C)(C)C)/N=C2/C4=CC=C(Cl)C=C4)C` is 65; for `COc1cc2ncnc(-n3nc(-c4ccccn4)nc3N)c2cc1OC` it is 124; for `COc1cc2c(cc1O)CCC1C2CC[C@@]2(C)C1CC[C@@H]2O` (some centres undefined) it is 101. Still for that read-out and setting: the figure for `NCCCCNCCCN` is 121; for `c1cc(-c2sc(-c3ccncc3)c(-c3ccncc3)c2-c2ccncc2)ccn1` it is 106.

`CNCCCC12CCC(c3ccccc31)c1ccccc12`: the viability (top concentration 46.1 µM) was 105. Same read-out and setting: the value for `C[N]1C=NC=C1[C@@](N)(C2=CC=C(Cl)C=C2)C3=CC=C4N(C)C(=O)\C=C(\C5=CC=CC(=C5)Cl)C4=C3` was 96.3; that for `CCC[S+]([O-])c1ccc2[nH]c(NC(=O)OC)nc2c1` (centres undefined) was 92.2.

As for `C[C@@H]1CN[C@H]2[C@@H](C)[C@@]\3(CC[C@H]\4[C@@H]5C/C=C6/C[C@@H](O)CC[C@]6(C)[C@H]5CC4=C3C)O[C@@H]2C1`, the viability (top concentration 46.1 µM) came out at 116. Same read-out and setting: the figure for `CCCC[N+]1(C)[C@@H]2CC(OC(=O)[C@H](CO)c3ccccc3)C[C@H]1[C@@H]1O[C@@H]12` (some centres undefined) is 114; for `NC(CO)(CO)CCc1ccc(Sc2cccc(OCc3ccccc3)c2)cc1Cl` it is 118. For `CN(C)NC(=O)CCC(=O)O`, the viability (top concentration 46.1 µM) turned out to be 101. `Nc1ncnc2c1ncn2[C@@H]1O[C@H](CO)C[C@H]1O` came in with a viability (top concentration 46.1 µM) of 97.3. Still for that read-out and setting: the figure for `O=C1CC[C@@]2(O)[C@H]3Cc4ccc(O)c5c4[C@@]2(CCN3CC2CC2)[C@H]1O5` is 137; for `Cc1n[nH]c(C)c1Cc1sc2c(c1C(=O)N1C[C@H](O)CO1)c(=O)n(C)c(=O)n2CC(C)C` it is 119; for `CCN1CCN(C(=O)Cc2ccc(Nc3ncc(F)c(Nc4ccc(C(=O)Nc5ccccc5Cl)cc4)n3)cc2)CC1` it is 55.5. On the same count and under the same terms, the value for `Clc1ccc(CCC(Cn2ccnc2)Sc2c(Cl)cccc2Cl)cc1` (centres undefined) was 97; that for `O=C(O)C1CCCN(CCC=C(c2ccccc2)c2ccccc2)C1` (centres undefined) was 102. Still for that read-out and setting: the figure for `COc1ccc(C2CNC(=O)C2)cc1OC1CCCC1` (centres undefined) is 136; for `C[C@H]1[C@H](NC(=O)/C(=N/OC(C)(C)C(=O)O)c2csc(N)n2)C(=O)N1[S+](=O)([O-])O` it is 114.

Regarding `CC(=O)C\1=C(/C)C2=CN=C(NC3=CC=C(C=N3)N4CCNCC4)N=C2N(C5CCCC5)C1=O`, the viability (top concentration 46.1 µM) was 93. Same read-out and setting: the value for `O=C(NCc1ccccc1)c1csc(Nc2ccncn2)n1` was 110; that for `O=C(CCc1ccc(O)cc1)c1c(O)cc(O)cc1O` was 107. In turn, `Cc1noc(-c2ccc(CSCCC(=O)O)cc2)c1NC(=O)OC(C)c1ccccc1Cl` (centres undefined) came in with a viability (top concentration 46.1 µM) of 106.

Regarding `CCCC1=N[N](C)C2=C1\N=C(/NC2=O)C3=CC(=CC=C3OCC)[S+]([O-])(=O)N4CCN(C)CC4`, the viability (top concentration 46.1 µM) came out at 74.6.

`OCCn1cc(-c2cnc3nnn(Cc4ccc5ncccc5c4)c3n2)cn1` yielded a viability (top concentration 46.1 µM) of 106. Turning to `O=C(c1ccc(F)cc1)N1CCC[C@H](c2nc(-c3ccc(F)cc3)no2)C1`, the viability (top concentration 46.1 µM) was 119. On the same count and under the same terms, the value for `CCN1CCCC1CNC(=O)c1cc(S(=O)(=O)CC)c(N)cc1OC` (centres undefined) was 119; that for `Nc1ncnc2c1c(-c1cccc(OCc3ccccc3)c1)cn2C1CC(CN2CCCC2)C1` (centres undefined) was 78.1; that for `COc1ccc(CCC(=O)Nc2nc3ccc(Cl)cc3s2)cc1OC` was 47.9. For the setting “top concentration 46.1 µM”, `Cn1cnc2c(F)c(Nc3ccc(Br)cc3Cl)c(C(=O)NOCCO)cc21` gave a viability of 73.7. On the same count and under the same terms, the figure for `COc1cc2nccc(Oc3ccc(NC(=O)Nc4ccc(F)cc4F)c(F)c3)c2cc1OC` is 91.3; for `O=C1N\C=N/C2=C1C=N[NH]2` it is 106. Still for that read-out and setting: the figure for `CN(C)/[N+]([O-])=N/Oc1cc(ON[N+](=O)N2CCN(C(=O)c3cc(Cc4n[nH]c(=O)c5ccccc45)ccc3F)CC2)c([N+](=O)[O-])cc1[N+](=O)[O-]` is 108; for `CCN(CC)CC#CCOC(=O)C(O)(c1ccccc1)C1CCCCC1` (centres undefined) it is 127; for `NC1=NC(=O)N2CC12` (centres undefined) it is 138. Still for that read-out and setting: the figure for `Clc1ccccc1C(c1ccccc1)(c1ccccc1)n1ccnc1` is 99.5; for `Cc1cnc(-c2cc(N3CCN(C(=O)CC[S+](C)(=O)[O-])CC3)ncc2Cl)c(C)c1` it is 72.3. In the case of `N=C(N)NC(=N)N1CCOCC1`, the viability (top concentration 46.1 µM) came to 132. The same measure, in the same setting: the value for `NCCCCCC(=O)O` was 130; that for `COc1ccc2c(OCc3nnc4ccc(-c5ccccc5)nn34)ccnc2c1` was 126.

For the molecule `CC(=O)OCCN1C(=O)c2c(C)nc3ccc([S+](=O)([O-])N4CCOCC4)cc3c2C1=O`, the viability (top concentration 46.1 µM) stood at 123. Still for that read-out and setting: the figure for `O=C([O-])C[C@H](O)C[C@H](O)/C=C/c1c(C2CC2)nc2ccccc2c1-c1ccc(F)cc1` is 92.1; for `O=C(C1CC1)N1CC[C@@H](Cn2c(-c3ccc(-c4ccc5occc5c4)cc3)nc3cnccc32)C1` it is 124. For `COC1=CC=CC=C1C2=CC=CC(=C2)C/3=C(O)/C4=CC(=C(Cl)C=C4NC3=O)C#N`, where the note is “top concentration 92.2 µM”, the viability amounted to 142. Turning to `COc1ccc2cc3[n+](cc2c1OC)CCc1cc2c(cc1-3)OCO2`, the viability (top concentration 46.1 µM) was determined as 99.7. For `O=C(O)CCCCCC(=O)NN=C1CCCC1`, the viability (top concentration 46.1 µM) came to 108.

Molecule `C[C@]12CC(=O)[C@H]3[C@@H](CC\C4=C\C(=O)\C=C/[C@]34C)[C@@H]1CC[C@]2(O)C(=O)CO` returned a viability (top concentration 23 µM) of 131. In turn, `COCCNCCCn1c(C(=O)CF)c(-c2ccc(C)cc2)c2c(N)ncnc21` yielded a viability (top concentration 46.1 µM) of 90.7. On the same count and under the same terms, the value for `c1cc(OCCN2CCCCC2)cc(-c2n[nH]c3ccc(-c4nc[nH]n4)cc23)c1` was 111; that for `CN1\C(=C(\O)C2=C(C=CC=C2)[S+]1([O-])=O)C(=O)NC3=CC=CC=N3` was 99; that for `C=C[C@H]1CN2CCC1C[C@H]2[C@H](O)c1ccnc2ccccc12` (some centres undefined) was 101. The molecule `COc1ccc2cc(-c3[nH]c(-c4ccc([S+](C)[O-])cc4)nc3-c3ccncc3)ccc2c1` (centres undefined) displayed a viability (top concentration 46.1 µM) of 144.

On to `Cc1ccc(NC(=O)c2ccc(CN3CCN(C)CC3)cc2)cc1Nc1nc(-c2cccnc2)cs1`, for which the viability (top concentration 46.1 µM) worked out at 130.
